Measurements published in patent US20080182781A1, “Process for the Preparation of Peptides” (priority 2004, published 2008).
Read-outs that look alike come from different tables or passages of the source. Where a SMILES comes first, the peptide text is derived from it. Bridges are numbered along the chain shown (N, C = ends). [ ]: non-standard residue; d: D form. hArg = N=C(N)NCCCC[C@H](N)C(=O)O; Mpa = O=C(O)CCS

System: ADP induced platelet aggregation
Assay type: cell-based
Conditions: human PRP
Protocol: The bioactivity of peptide of formula (1) is checked using platelet aggregation inhibition assay using 4× Laser Aggregometer (EMA). Freshly venous Blood from consented human donors are drawn and collected in citrated buffer. The platelet rich plasma (PRP) and platelet poor plasma are separated by centrifugation. Platelet count in PRP is adjusted to 2-3×10^8 platelets/ml. After adjusting the baseline aggregation with PPP, the PRP was treated with […] ADP and checked the percent total aggregation. The PRP is then first incubated with varying concentrations of reference standard and synthesized peptide of formula (1). ADP is then added to check the inhibition of aggregation. The reproducibility of bioactivity of synthesized peptide of formula 1 is checked several times and compared with reference standards.

N=C(N)NCCCC[C@@H]1NC(=O)CCSSC[C@@H](C(N)=O)NC(=O)[C@@H]2CCCN2C(=O)[C@H](Cc2c[nH]c3ccccc23)NC(=O)[C@H](CC(=O)O)NC(=O)CNC1=O [SP of formula 1] ([Mpa][hArg]GDWPC-NH2; disulfide 1-7)
% Inhibition of ADP induced aggregation (Donor 1, 140 nM): 44.6%
% Inhibition of ADP induced aggregation (Donor 1, 280 nM): 61.40%
% Inhibition of ADP induced aggregation (Donor 2, 70 nM): 46.66%
% Inhibition of ADP induced aggregation (Donor 2, 140 nM): 51.16%
% Inhibition of ADP induced aggregation (Donor 2, 280 nM): 67.74%
% Inhibition of ADP induced aggregation (Donor 3, 70 nM): 57.42%
% Inhibition of ADP induced aggregation (Donor 3, 140 nM): 60.28%
% Inhibition of ADP induced aggregation (Donor 4, 140 nM): 20.52%
% Inhibition of ADP induced aggregation (Donor 4, 280 nM): 42.73%
% Inhibition of ADP induced aggregation (Donor 5, 70 nM): 52.63%
% Inhibition of ADP induced aggregation (Donor 5, 140 nM): 87.21%
% Inhibition of ADP induced aggregation (Donor 6, 140 nM): 82.92%
IC50 (12 experiments, read-out: IC50 dose, inhibition of ADP induced platelet aggregation): < 140 nM
inhibition of ADP induced platelet aggregation (seen in most of the samples): more than 50%
